Test results from patent EP3156398A1, “AGONISTS OF THE CHEMOKINE RECEPTOR CXCR3” (Friedrich-Alexander-Universität Erlangen-Nürnberg, priority 2015, dated 2017).
Entries after “also recorded” stand apart in the source; their conditions may differ.

What was measured:
[1] = tested on: HEK293 cells transiently transfected with CXCR3; experiment: Transwell migration assay; type: cell-based, human; details: for influence on CXCL11 induced migration: cells pre-incubated 15 minutes, compound in both chambers, CXCL11 as chemoattractant, Figure 5B; for induced migration compared to buffer control: compound applied to the source reservoir, on its own, 5 h, Figure 5A
Method: Transwell migration assay. HEK-293 cells were maintained in DMEM medium supplemented with 10% FBS and 1% penicillin/streptomycin. For DNA transfection, 5 µg plasmid DNA (CXCR3) was mixed with TE buffer to give a final of 105 µl solution and 15 µl CaCl2 (2M) was added. The DNA mixture was then dripped into 120 µl 2x HBSS solution, and the mixture was allowed to form calcium-phosphate precipitates for 45 minutes. The DNA/calcium-phosphate precipitate was dripped onto HEK293 cells (50% confluent in T25 flask), where the medium had been renewed and reduced to 1.5 ml 30 minutes prior to transfection. The cells were split and used for assays 48 h after transfection.
Migration of serum-starved HEK293 cell transiently transfected with CXCR3 was assessed using Transwell™ membranes (Costar; 8-µm pore). Filters were coated with 10 µg•mL^-1 fibronectin (in PBS 30 minutes at room temperature). The fibronectin solution was removed and the filters allowed to air-dry. The filters were placed in a 24-well dish that contained low serum (0.2%) DMEM supplemented with agonists or control buffer. HEK293 cells suspended in 0.2% serum DMEM containing test compounds were added to the upper chamber (1 × 10^5 cells/well). Cells were allowed to migrate for 5 h at 37 °C. Nonmigrated cells were removed from the top filter surface with a cotton swab. Migrated cells, attached to the bottom surface, were fixed in 3.7% formaldehyde (in PBS) and dyed with crystal violet. Transmigrated cells were counted in 5 predefined areas on the membrane using 20X objective.
To investigate the influence of FAUC1036 and FAUC1104 on CXCR3 induced migration, the inventors used these compounds alongside CXCL11 in a standard transwell assay with HEK293 cells transiently transfected with CXCR3. […] To test whether FAUC1036 and FAUC1104 influence CXCL11 induced migration, the inventors pre-incubated the cells with these compounds for 15 minutes and then set up the migration assay in the presence of either compound in both the top chamber (sink) containing the cells and in the lower chamber (source) containing CXCL11 as chemoattractant.

CXCR3 = target: T1, CXCR3 (Homo sapiens, UniProt P49682); experiment: [35S]GTPγS incorporation assay; type: biochemical; details: for CXCR3 Efficacy (%) ± SEM: % of CXCL11 mediated effect; for CXCR3 Efficacy (%) ± SEM / CXCR3 pEC50 ± SEM: membrane preparations of HEK293T stably expressing CXCR3; for CXCR3 mediated G protein activation (result in words): [35S]GTPγS incorporation; for CXCR3 pEC50 ± SEM: mean of three experiments in triplicate
T1 construct: expressed in transfected cells; host or cells: HEK293 / HEK293T cells, stably transfected; membrane preparations
T1 sequence (P49682 1-368): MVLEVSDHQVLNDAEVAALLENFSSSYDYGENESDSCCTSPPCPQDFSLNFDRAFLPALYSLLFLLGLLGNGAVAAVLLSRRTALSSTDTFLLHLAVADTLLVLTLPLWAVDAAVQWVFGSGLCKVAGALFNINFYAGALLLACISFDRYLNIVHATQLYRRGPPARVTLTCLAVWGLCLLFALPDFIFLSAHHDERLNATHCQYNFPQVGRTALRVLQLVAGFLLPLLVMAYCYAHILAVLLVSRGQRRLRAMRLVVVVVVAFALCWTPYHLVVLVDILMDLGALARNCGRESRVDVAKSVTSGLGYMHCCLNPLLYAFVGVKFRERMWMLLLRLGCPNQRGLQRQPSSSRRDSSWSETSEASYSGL
Summary of the method: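 Membranes from HEK293 cells stably expressing human CXCR3 (30 µg/mL protein) preincubated 30 min at 37 °C with test compound, CXCL11 and 1 µM GDP in HEPES/MgCl2/NaCl/saponin buffer, pH 7.4. Then 0.10 nM [35S]GTPγS added for 30 min at 37 °C; filter-bound radioactivity counted, triplicates, 3–4 experiments.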

Row | SMILES | chemotaxis (result in words) [1] | influence on CXCL11 induced migration [1] | induced migration compared to buffer control [1] | CXCR3 Efficacy (%) ± SEM (CXCR3) | CXCR3 mediated G protein activation (result in words) (CXCR3; listed as 11/FAUC1036) | CXCR3 mediated G protein activation (result in words) (CXCR3; listed as FAUC1036) | CXCR3 pEC50 ± SEM (CXCR3) | CXCR3 Efficacy (%) ± SEM (CXCR3; listed as 14/FAUC1104) [%] | CXCR3 Efficacy (%) ± SEM (CXCR3; listed as FAUC1104) [%] | CXCR3 pEC50 ± SEM (CXCR3; listed as 14/FAUC1104) | CXCR3 pEC50 ± SEM (CXCR3; listed as FAUC1104) | Emax (CXCR3; read-out: CXCR3 Efficacy (%) ± SEM) [%]
1 | CC(C)(C)OC(=O)N[C@@H](CCCCNC(=O)[C@@H]1Cc2ccccc2CN1C(=O)CCC(=O)c1ccccc1)C(=O)NCC(c1ccccc1)c1ccccc1 [Compound 11, Tert-butyl ((S)-1-((2,2-diphenylethyl)amino)-1-oxo-6-((S)-2-(4-oxo-4-phenylbutanoyl)-1,2,3,4-tertahydroisoquinoline-3-carboxamido)hexan-2-yl)carbamate] | weak chemotaxis | no antagonizing effect | approximately 0.25 fold | No effect | failed to induce CXCR3 mediated G protein activation | without any activation of G proteins; also recorded: has no effect on the G-protein signalling | No effect |  |  |  |  | 
2 | COc1ccc(C(=O)CCC(=O)N2Cc3ccccc3C[C@H]2C(=O)NCCCC[C@H](NC(=O)OC(C)(C)C)C(=O)NCC(c2ccccc2)c2ccccc2)cc1 [Compound 14, Tert-butyl ((S)-1-((2,2-diphenylethyl)amino)-6-((S)-2-(4-(4-methoxyphenyl)-4-oxobutanoyl)-1,2,3,4-tetrahydroisoquinoline-3-carboxamido)-1-oxohexan-2-yl)carbomate] | strong chemotaxis | significantly higher CXCL11 induced migration | approximately 0.25 fold |  |  |  |  | 50±19 | 50 | 5.22±0.31 | 5.22 | 50
